# In US6908908B2, “Biologically active 4H-benzo [1,4] oxazin-3-ones” (Ortho-McNeil Pharmaceutical, Inc., priority 2000, dated 2005):
# Biological target: T1, PPAR γ (Homo sapiens, UniProt P37231)
# T1 construct: Following the challenge of the preadipocytes, cells may be lysed with lysis buffer; endogenous in cells; host or cells: preadipocytes
# T1 sequence (P37231 1-505): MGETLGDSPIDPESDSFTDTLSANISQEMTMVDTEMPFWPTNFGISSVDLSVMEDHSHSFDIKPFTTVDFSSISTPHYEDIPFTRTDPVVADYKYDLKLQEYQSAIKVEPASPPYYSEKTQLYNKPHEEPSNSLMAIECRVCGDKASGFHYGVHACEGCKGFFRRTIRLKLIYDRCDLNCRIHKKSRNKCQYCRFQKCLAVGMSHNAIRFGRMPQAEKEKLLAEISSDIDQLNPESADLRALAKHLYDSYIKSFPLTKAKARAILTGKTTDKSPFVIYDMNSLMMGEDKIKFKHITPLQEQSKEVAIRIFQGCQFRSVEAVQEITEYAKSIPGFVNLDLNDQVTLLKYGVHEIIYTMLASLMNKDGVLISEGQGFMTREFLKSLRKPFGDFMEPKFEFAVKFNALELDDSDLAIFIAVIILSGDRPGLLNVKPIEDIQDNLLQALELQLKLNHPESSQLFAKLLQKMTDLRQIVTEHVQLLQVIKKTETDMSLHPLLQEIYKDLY
# Assay: aP2 Assay for Agonist (induction of aP2 mRNA production); as to Agonist Intrinsic Activity: test concentration or dose not given here
# Assay type: cell-based
# Details: Table 1; fold increase over vehicle in induction of aP2 mRNA production
row,SMILES,Agonist Intrinsic Activity
1,O=C([O-])Cc1ccccc1OCCC1Oc2ccccc2N(Cc2cccc(C(F)(F)F)c2)C1=O.[Na+] (stereo not shown) [Compound 28],21.5
2,"CCCCCCN1C(=O)C(CCOc2ccccc2CP(=O)(O)O)Oc2ccccc21 (stereo not shown) [Compound 15, Phosphonic acid, [[2-[2-(4-hexyl-3,4-dihydro-3-oxo-2H-1,4-benzoxazin-2-yl)ethoxy]phenyl]methyl]-]",7.2
3,COC(=O)Cc1ccccc1OCCC1Oc2ccccc2N(Cc2ccc(C(F)(F)F)cc2)C1=O (stereo not shown) [Compound 37],1.2
4,CCCSCCN1C(=O)C(CCOc2ccccc2C(F)(F)F)Oc2ccccc21 (stereo not shown) [Compound 21],1.9
5,COCCCCN1C(=O)C(CCOc2ccccc2C(F)(F)F)Oc2ccccc21 (stereo not shown) [Compound 18],0.3
6,O=C(O)Cc1ccccc1OCCC1Oc2ccccc2N(c2ccc(Cl)c(Cl)c2)C1=O (stereo not shown) [Compound 119],22.8

# Same assay, conditions: Table 3 (stereoisomers); fold increase over vehicle in induction of aP2 mRNA production
row,SMILES,PPAR γ Agonist Intrinsic Activity
1,CCCCCCN1C(=O)[C@](C)(CCOc2ccccc2CC(=O)O)Oc2ccccc21 [Compound 130],91.3
